Assay results from PubChem BioAssay (NCI).
Where “and” joins values, the source holds several entries; their conditions need not be identical. Equal values may be shown once.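 Method: 48-hour compound exposure of cells in 96-well plates, five concentrations, linear interpolation of endpoints. GI50 marks 50% less growth. TGI denotes the concentration required for complete inhibition of growth.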

How the values were obtained:
Test in all cases: growth of human tumour cells (NCI), 48 h
A498 renal = test system: A498 renal
CAKI-1 renal = test system: CAKI-1 renal
KM12 colon = test system: KM12 colon
M14 melanoma = test system: M14 melanoma
NCI-H460 lung = test system: NCI-H460 lung
OVCAR-3 ovarian = test system: OVCAR-3 ovarian
OVCAR-4 ovarian = test system: OVCAR-4 ovarian
SK-MEL-28 melanoma = test system: SK-MEL-28 melanoma
SK-OV-3 ovarian = test system: SK-OV-3 ovarian
UACC-257 melanoma = test system: UACC-257 melanoma

Row | Compound | TGI (A498 renal) | TGI (CAKI-1 renal) | TGI (KM12 colon) | TGI (M14 melanoma) | TGI (NCI-H460 lung) | TGI (OVCAR-3 ovarian) | TGI (OVCAR-4 ovarian) | TGI (SK-MEL-28 melanoma) | TGI (SK-OV-3 ovarian) | TGI (UACC-257 melanoma) | GI50 (A498 renal) | GI50 (CAKI-1 renal) | GI50 (KM12 colon) | GI50 (M14 melanoma) | GI50 (NCI-H460 lung) | GI50 (OVCAR-3 ovarian) | GI50 (OVCAR-4 ovarian) | GI50 (SK-MEL-28 melanoma) | GI50 (SK-OV-3 ovarian) | GI50 (UACC-257 melanoma)
1 | N=CCCN(CCC=N)c1ccc(/C=C2\CN(NC(=O)c3ccc(Cl)cc3)C(c3ccccc3)=N2)cc1 | > 100 µM | > 100 µM | > 100 µM | > 100 µM | > 100 µM | > 100 µM | > 100 µM | > 100 µM | > 100 µM | > 100 µM |  |  |  |  |  |  |  |  |  | 
2 | N=Nc1c(OC(=O)Nc2ccccc2)[nH]c2ccccc12 | 34.7 µM | 32.8 µM | 29.3 µM | 37.9 µM | 25.7 µM | 26.7 µM | 30.7 µM | > 100 µM | 36.8 µM | 92.2 µM |  |  |  |  |  |  |  |  |  | 
3 | N#CNC(N)=NCCO | > 100 µM | > 100 µM | > 100 µM | > 100 µM | > 100 µM | > 100 µM | > 100 µM | > 100 µM | > 100 µM | > 100 µM |  |  |  |  |  |  |  |  |  | 
4 | NC1=NC(c2ccc(Cl)cc2)N(c2ccc(S(=O)(=O)Nc3ncccn3)cc2)C(N)=N1 (stereo not drawn) | > 100 µM | > 100 µM | > 100 µM | > 100 µM | > 100 µM | > 100 µM | > 100 µM | > 100 µM | > 100 µM | > 100 µM |  |  |  |  |  |  |  |  |  | 
5 | Cc1ccc(NC(=O)CC/C(CC(=O)C(C)(C)C)=N/NC(=O)C(N)=O)cc1C | > 100 µM | > 100 µM | > 100 µM | > 100 µM | > 100 µM | > 100 µM | > 100 µM | > 100 µM | > 100 µM | > 100 µM |  |  |  |  |  |  |  |  |  | 
6 | COc1cc([N+](=O)[O-])c(S(=O)(=O)O)cc1NS(=O)(=O)c1ccc(C)cc1 | > 100 µM | > 100 µM | > 100 µM | > 100 µM | > 100 µM | > 100 µM | > 100 µM | > 100 µM | > 100 µM | > 100 µM |  |  |  |  |  |  |  |  |  | 
7 | CN1CCN(CCCOc2cccc3nc(Nc4ccc(Cl)c(F)c4)ccc23)CC1 | 8.28 µM | 8.47 µM | 3.43 µM | 3.37 µM | 3.7 µM | 3.29 µM | 12.4 µM | 3.21 µM | 3.44 µM | 3.64 µM | 2.39 µM | 2.53 µM | 1.77 µM | 1.73 µM | 1.91 µM | 1.7 µM | 3.13 µM | 1.72 µM | 1.79 µM | 2.04 µM
8 | COc1cc2ccccc2c2cc([N+](=O)[O-])oc12 | 0.342 µM | > 100 µM | 4.68 µM | 0.608 µM | 1.06 µM | 5.41 µM | > 44 µM | 0.695 µM | > 71.7 µM | 0.443 µM |  |  |  |  |  |  |  |  |  | 
9 | COc1cc(NS(C)(=O)=O)ccc1Nc1c2ccccc2nc2c(C)cccc12 | 1.03 µM and 1.6 µM | 4.6 µM and 5.71 µM | 2.42 µM and 3.74 µM | 13.9 µM and 11.1 µM | 1.1 µM and 1.08 µM | 2.35 µM and 2.94 µM | 9.74 µM and 16.7 µM | 7.68 µM and 13.7 µM | 7.8 µM and 11 µM | 12.1 µM and 13.5 µM | 0.0806 µM and 0.0968 µM | 0.073 µM and 0.0923 µM | 0.416 µM and 0.558 µM | 0.198 µM and 0.129 µM | 0.0175 µM and 0.022 µM | 0.794 µM and 0.933 µM | 1.86 µM and 2.6 µM | 1.1 µM and 1.33 µM | 0.302 µM and 0.332 µM | 0.792 µM and 0.639 µM
10 | Cn1cc(C2=C(c3c4n(c5ccccc35)CCCC4)C(=O)NC2=O)c2ccccc21 | > 25 µM | > 25 µM | > 25 µM | > 25 µM | > 25 µM | > 21.6 µM | > 25 µM | > 25 µM | > 25 µM | > 25 µM | 5.19 µM | 8.1 µM | 9.71 µM | 13.4 µM | 9.9 µM | 6.43 µM | > 16.5 µM | > 21.8 µM | > 15.3 µM | > 21.7 µM
11 | Cc1c(C(=O)CC(=O)C(=O)Nc2c(C(C)C)cccc2C(C)C)[n+](=O)c2ccccc2n1[O-] | 49.6 µM | 43 µM | 15.7 µM | 10.8 µM | 7.02 µM | 5.29 µM | 15.5 µM | 48.3 µM | 40.1 µM | 12.6 µM |  |  |  |  |  |  |  |  |  | 
12 | Clc1ccccc1C(n1ncc2ccccc21)n1ncc2ccccc21 | > 100 µM | > 100 µM | > 100 µM | > 100 µM | > 100 µM | > 100 µM | > 100 µM | > 100 µM | > 10 µM | > 100 µM |  |  |  |  |  |  |  |  |  | 
13 | O=C1c2cccc3cc([N+](=O)[O-])cc(c23)C(=O)N1NC1=NCCN1 | > 100 µM | > 100 µM | > 100 µM | > 100 µM | > 100 µM | > 100 µM | > 100 µM | > 100 µM | > 100 µM | > 100 µM |  |  |  |  |  |  |  |  |  | 
14 | O=C(CCN1CCOCC1)Nc1ccc(F)cc1F | > 100 µM | > 100 µM | > 100 µM | > 100 µM | > 100 µM | > 100 µM | > 100 µM | > 100 µM | > 100 µM | > 100 µM |  |  |  |  |  |  |  |  |  | 
15 | O=C(COc1ccc(/C=C2\Oc3ccccc3C2=O)cc1)Nc1nccs1 | > 100 µM | > 100 µM | > 100 µM |  | > 100 µM | > 100 µM | > 100 µM | > 100 µM | > 100 µM | > 100 µM | 54.1 µM | 12.1 µM | 8.08 µM |  | 88 µM | 36.1 µM | 70.4 µM | > 100 µM | > 100 µM | 39.3 µM
